Experimental data as given in patent US20080119505A1, “Novel 6-Pyridylphenanthridines” (ALTANA Pharma AG, priority 2005, published 2008).

Biological target: T1, PDE4B2 (Homo sapiens, UniProt Q07343)
T1 construct: made in house; host or cells: SF21 insect cells (baculovirus; virus made in SF9 cells)
Assay: Inhibition of PDE4 activity (PDE4B2 [3H]cAMP SPA enzyme assay)
Format: biochemical
Conditions: recombinant PDE4B2 expressed in SF21 insect cells, 0.5 μM cAMP, read-out: −log IC50 (mol/l), Inhibition of the PDE4 activity (converted)
Experimental: The PDE4B2 (GB no. M97515) was a gift of Prof. M. Conti (Stanford University, USA). It was amplified from the original plasmid (pCMV5) via PCR with primers Rb9 (5′-[…]-3′) and Rb10 (5′-[…]-3′) and cloned into the pCR-Bac vector (Invitrogen, Groningen, NL).
The recombinant baculovirus was prepared by means of homologous recombination in SF9 insect cells. The expression plasmid was cotransfected with Bac-N-Blue (Invitrogen, Groningen, NL) or Baculo-Gold DNA (Pharmingen, Hamburg) using a standard protocol (Pharmingen, Hamburg). Wt virus-free recombinant virus supernatant was selected using plaque assay methods. After that, high-titre virus supernatant was prepared by amplifying 3 times. PDE was expressed in SF21 cells by infecting 2×10^6 cells/ml with an MOI (multiplicity of infection) between 1 and 10 in serum-free SF900 medium (Life Technologies, Paisley, UK). […]
The SF21 insect cells were resuspended, at a concentration of approx. 10^7 cells/ml, in ice-cold (4° C.) homogenization buffer (20 mM Tris, pH 8.2, containing the following additions: 140 mM NaCl, 3.8 mM KCl, 1 mM EGTA, 1 mM MgCl2, 10 mM β-mercaptoethanol, 2 mM benzamidine, 0.4 mM Pefablock, 10 μM leupeptin, 10 μM pepstatin A, 5 μM trypsin inhibitor) and disrupted by ultrasonication. […] The protein content was determined by the Bradford method (BioRad, Munich) using BSA as the standard. […]

T1 sequence (Q07343 1-564 isoform Q07343-2): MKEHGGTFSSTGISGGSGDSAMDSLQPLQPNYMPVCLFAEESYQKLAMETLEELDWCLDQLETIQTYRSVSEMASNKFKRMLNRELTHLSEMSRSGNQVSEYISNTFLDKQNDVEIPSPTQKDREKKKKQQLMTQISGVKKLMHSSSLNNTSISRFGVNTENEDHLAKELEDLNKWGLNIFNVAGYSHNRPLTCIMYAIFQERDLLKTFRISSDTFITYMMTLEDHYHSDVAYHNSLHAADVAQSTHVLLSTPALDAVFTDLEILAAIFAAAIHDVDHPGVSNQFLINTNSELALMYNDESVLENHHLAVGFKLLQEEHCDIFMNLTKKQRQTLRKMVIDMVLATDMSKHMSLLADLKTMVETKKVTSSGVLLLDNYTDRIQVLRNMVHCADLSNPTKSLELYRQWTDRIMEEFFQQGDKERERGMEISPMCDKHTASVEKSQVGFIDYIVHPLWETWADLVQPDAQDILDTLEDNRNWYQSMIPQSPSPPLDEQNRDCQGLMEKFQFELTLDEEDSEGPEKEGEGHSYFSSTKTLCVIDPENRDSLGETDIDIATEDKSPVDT

IC50: 3.24 nM
SMILES: CCOc1cc2c(cc1OC)C(c1ccc(OC)nc1OC)=N[C@@H]1CCCC[C@H]21 [Example 2, (4aR,10bR)-6-(2,6-Dimethoxy-pyridin-3-yl)-9-ethoxy-8-methoxy-1,2,3,4,4a,10b-hexahydro-phenanthridine]
